Reference: the NIST ThermoML archive (doi:10.1016/j.fluid.2008.03.004)

Assay: xn = mol fraction of the nth substance listed
Details: 101 kPa, Liquid; for speed of sound: Sing-around technique in a fixed-path interferometer

CCOC(C)(C)C [2-ethoxy-2-methylpropane] + Cc1ccccc1C
Details	mass density [kg/m3]	speed of sound [m/s]
288.15 K, x1 = 0.055	875.654	1371.2
288.15 K, x1 = 0.098	870.017	1357.8
288.15 K, x1 = 0.201	855.684	1324.8
288.15 K, x1 = 0.307	840.866	1290.1
288.15 K, x1 = 0.4	827.772	1261.6
288.15 K, x1 = 0.502	813.516	1228.9
288.15 K, x1 = 0.601	800.311	1199
288.15 K, x1 = 0.661	791.943	1180.1
288.15 K, x1 = 0.803	772.557	1137.4
288.15 K, x1 = 0.895	759.896	1110.2
288.15 K, x1 = 0.947	752.872	1095
288.15 K, x1 = 1	744.955	1076.4
290.65 K, x1 = 0.055	873.542	1360.8
290.65 K, x1 = 0.098	867.884	1347.3
290.65 K, x1 = 0.201	853.503	1314.3
290.65 K, x1 = 0.307	838.637	1279.4
290.65 K, x1 = 0.4	825.503	1251
290.65 K, x1 = 0.502	811.198	1218.2
290.65 K, x1 = 0.601	797.952	1188.2
290.65 K, x1 = 0.661	789.556	1169.2
290.65 K, x1 = 0.803	770.105	1126.4
290.65 K, x1 = 0.895	757.404	1099.4
290.65 K, x1 = 0.947	750.354	1084.5
290.65 K, x1 = 1	742.482	1065.1
293.15 K, x1 = 0.055	871.419	1350.4
293.15 K, x1 = 0.098	865.74	1336.8
293.15 K, x1 = 0.201	851.313	1303.8
293.15 K, x1 = 0.307	836.397	1268.7
293.15 K, x1 = 0.4	823.223	1240.4
293.15 K, x1 = 0.502	808.871	1207.4
293.15 K, x1 = 0.601	795.578	1177.3
293.15 K, x1 = 0.661	787.156	1158.3
293.15 K, x1 = 0.803	767.641	1115.4
293.15 K, x1 = 0.895	754.895	1088.5
293.15 K, x1 = 0.947	747.821	1073.5
293.15 K, x1 = 1	739.947	1053.7
295.65 K, x1 = 0.055	869.295	1339.8
295.65 K, x1 = 0.098	863.594	1326.3
295.65 K, x1 = 0.201	849.119	1293.2
295.65 K, x1 = 0.307	834.156	1257.9
295.65 K, x1 = 0.4	820.937	1229.6
295.65 K, x1 = 0.502	806.537	1196.5
295.65 K, x1 = 0.601	793.199	1166.3
295.65 K, x1 = 0.661	784.75	1147.3
295.65 K, x1 = 0.803	765.167	1104.3
295.65 K, x1 = 0.895	752.377	1077.3
295.65 K, x1 = 0.947	745.278	1062.5
295.65 K, x1 = 1	737.374	1042.2
298.15 K, x1 = 0.055	867.167	1329.3
298.15 K, x1 = 0.098	861.446	1315.8
298.15 K, x1 = 0.201	846.922	1282.7
298.15 K, x1 = 0.307	831.91	1247.3
298.15 K, x1 = 0.4	818.651	1218.9
298.15 K, x1 = 0.502	804.2	1185.7
298.15 K, x1 = 0.601	790.817	1155.5
298.15 K, x1 = 0.661	782.341	1136.4
298.15 K, x1 = 0.803	762.689	1093.3
298.15 K, x1 = 0.895	749.853	1066.3
298.15 K, x1 = 0.947	742.726	1051.4
298.15 K, x1 = 1	734.806	1031
300.65 K, x1 = 0.055	865.039	1318.9
300.65 K, x1 = 0.098	859.296	1305.5
300.65 K, x1 = 0.201	844.725	1272.3
300.65 K, x1 = 0.307	829.661	1236.7
300.65 K, x1 = 0.4	816.36	1208.3
300.65 K, x1 = 0.502	801.859	1175
300.65 K, x1 = 0.601	788.431	1144.7
300.65 K, x1 = 0.661	779.923	1125.5
300.65 K, x1 = 0.803	760.203	1082.3
300.65 K, x1 = 0.895	747.321	1055.2
300.65 K, x1 = 0.947	740.169	1040.3
300.65 K, x1 = 1	732.225	1019.8
303.15 K, x1 = 0.055	862.904	1308.4
303.15 K, x1 = 0.098	857.143	1295.2
303.15 K, x1 = 0.201	842.523	1262
303.15 K, x1 = 0.307	827.409	1226.2
303.15 K, x1 = 0.4	814.064	1197.8
303.15 K, x1 = 0.502	799.512	1164.3
303.15 K, x1 = 0.601	786.037	1133.9
303.15 K, x1 = 0.661	777.502	1114.7
303.15 K, x1 = 0.803	757.711	1071.3
303.15 K, x1 = 0.895	744.78	1044.2
303.15 K, x1 = 0.947	737.602	1029.1
303.15 K, x1 = 1	729.647	1008.6
305.65 K, x1 = 0.055	–	1298
305.65 K, x1 = 0.098	–	1285
305.65 K, x1 = 0.201	–	1251.6
305.65 K, x1 = 0.307	–	1215.8
305.65 K, x1 = 0.4	–	1187.3
305.65 K, x1 = 0.502	–	1153.6
305.65 K, x1 = 0.601	–	1123.1
305.65 K, x1 = 0.661	–	1103.9
305.65 K, x1 = 0.803	–	1060.3
305.65 K, x1 = 0.895	–	1033.2
305.65 K, x1 = 0.947	–	1018
305.65 K, x1 = 1	–	997.52
